ChEMBL document CHEMBL1938230, “6-Position optimization of tricyclic 4-quinolone-based inhibitors of glycogen synthase kinase-3β: discovery of nitrile derivatives with picomolar potency” (Bioorg Med Chem Lett, 2012)

How the values were obtained:
Assay type in all cases: cell-free
[1] = molecular target: Cyclin-dependent kinase 14 (Homo sapiens) (UniProt O94921); experiment: Inhibition of human PFTAIRE1 in HL-60 cells lysate assessed as reduction of labeling of acyl-phosphate ATP probe at 100 nM
Chain of Cyclin-dependent kinase 14 (Homo sapiens) (O94921 whole entry): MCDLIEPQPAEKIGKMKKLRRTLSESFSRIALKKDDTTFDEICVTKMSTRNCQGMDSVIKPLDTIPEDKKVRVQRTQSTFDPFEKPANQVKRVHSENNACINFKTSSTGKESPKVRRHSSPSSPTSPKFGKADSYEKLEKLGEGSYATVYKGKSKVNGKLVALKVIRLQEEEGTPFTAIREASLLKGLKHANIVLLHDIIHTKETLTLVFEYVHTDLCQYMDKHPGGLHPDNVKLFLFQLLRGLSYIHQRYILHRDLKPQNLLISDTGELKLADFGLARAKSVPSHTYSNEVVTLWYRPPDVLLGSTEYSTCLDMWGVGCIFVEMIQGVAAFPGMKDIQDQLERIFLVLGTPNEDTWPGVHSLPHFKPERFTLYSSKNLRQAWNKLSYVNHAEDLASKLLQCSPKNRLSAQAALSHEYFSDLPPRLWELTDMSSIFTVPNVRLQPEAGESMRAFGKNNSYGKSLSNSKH

[2] = molecular target: T1, Phosphatidylinositol 5-phosphate 4-kinase type-2 alpha (Homo sapiens) (UniProt P48426); experiment: Inhibition of human PIP4K2A in HL-60 cells lysate assessed as reduction of labeling of acyl-phosphate ATP probe at 100 nM
T1 sequence (whole entry): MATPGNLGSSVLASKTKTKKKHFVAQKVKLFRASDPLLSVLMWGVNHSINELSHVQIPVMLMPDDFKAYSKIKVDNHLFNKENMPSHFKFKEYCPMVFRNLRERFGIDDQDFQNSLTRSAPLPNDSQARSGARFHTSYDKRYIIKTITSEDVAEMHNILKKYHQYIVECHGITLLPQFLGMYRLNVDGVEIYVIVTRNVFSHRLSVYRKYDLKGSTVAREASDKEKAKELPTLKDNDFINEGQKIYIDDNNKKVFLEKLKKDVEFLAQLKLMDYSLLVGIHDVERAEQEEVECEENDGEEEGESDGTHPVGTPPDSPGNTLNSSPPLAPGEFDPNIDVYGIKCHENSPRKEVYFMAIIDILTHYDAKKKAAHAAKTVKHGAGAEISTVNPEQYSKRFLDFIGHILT

[3] = molecular target: T2, Eukaryotic translation initiation factor 2-alpha kinase 3 (Homo sapiens) (UniProt Q9NZJ5); experiment: Inhibition of human PEK in HL-60 cells lysate assessed as reduction of labeling of acyl-phosphate ATP probe at 100 nM
T2 sequence (whole entry): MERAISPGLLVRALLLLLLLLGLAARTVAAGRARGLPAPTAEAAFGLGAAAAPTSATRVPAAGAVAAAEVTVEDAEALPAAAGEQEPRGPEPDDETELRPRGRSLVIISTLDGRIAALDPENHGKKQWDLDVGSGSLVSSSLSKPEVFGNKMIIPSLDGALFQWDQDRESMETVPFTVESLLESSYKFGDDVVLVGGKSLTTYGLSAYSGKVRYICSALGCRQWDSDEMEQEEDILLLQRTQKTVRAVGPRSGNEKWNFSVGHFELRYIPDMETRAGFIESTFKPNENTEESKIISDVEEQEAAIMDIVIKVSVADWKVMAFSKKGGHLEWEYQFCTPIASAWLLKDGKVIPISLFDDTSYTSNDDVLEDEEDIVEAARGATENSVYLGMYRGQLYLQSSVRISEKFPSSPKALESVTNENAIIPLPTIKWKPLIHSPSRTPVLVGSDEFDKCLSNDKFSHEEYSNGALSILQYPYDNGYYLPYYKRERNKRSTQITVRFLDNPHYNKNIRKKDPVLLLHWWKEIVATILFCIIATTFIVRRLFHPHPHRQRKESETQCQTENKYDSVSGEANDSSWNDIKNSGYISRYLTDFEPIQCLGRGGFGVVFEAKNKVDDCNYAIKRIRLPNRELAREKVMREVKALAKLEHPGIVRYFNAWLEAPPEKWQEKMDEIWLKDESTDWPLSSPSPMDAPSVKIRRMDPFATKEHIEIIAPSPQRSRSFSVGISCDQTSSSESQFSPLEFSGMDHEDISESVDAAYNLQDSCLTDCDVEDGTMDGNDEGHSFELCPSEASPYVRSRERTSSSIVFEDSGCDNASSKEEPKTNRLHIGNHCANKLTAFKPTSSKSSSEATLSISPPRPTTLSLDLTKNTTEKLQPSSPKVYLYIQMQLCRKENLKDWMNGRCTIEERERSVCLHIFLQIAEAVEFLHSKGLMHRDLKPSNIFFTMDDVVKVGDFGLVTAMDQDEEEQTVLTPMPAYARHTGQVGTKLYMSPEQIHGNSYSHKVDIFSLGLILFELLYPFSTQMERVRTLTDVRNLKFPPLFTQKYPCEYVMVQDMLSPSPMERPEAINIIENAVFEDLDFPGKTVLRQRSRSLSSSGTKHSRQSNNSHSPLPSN

[4] = molecular target: Serine/threonine-protein kinase tousled-like 2 (Homo sapiens) (UniProt Q86UE8); experiment: Inhibition of human TLK2 in HL-60 cells lysate assessed as reduction of labeling of acyl-phosphate ATP probe at 100 nM
Chain of Serine/threonine-protein kinase tousled-like 2 (Homo sapiens) (Q86UE8 whole entry, looked up): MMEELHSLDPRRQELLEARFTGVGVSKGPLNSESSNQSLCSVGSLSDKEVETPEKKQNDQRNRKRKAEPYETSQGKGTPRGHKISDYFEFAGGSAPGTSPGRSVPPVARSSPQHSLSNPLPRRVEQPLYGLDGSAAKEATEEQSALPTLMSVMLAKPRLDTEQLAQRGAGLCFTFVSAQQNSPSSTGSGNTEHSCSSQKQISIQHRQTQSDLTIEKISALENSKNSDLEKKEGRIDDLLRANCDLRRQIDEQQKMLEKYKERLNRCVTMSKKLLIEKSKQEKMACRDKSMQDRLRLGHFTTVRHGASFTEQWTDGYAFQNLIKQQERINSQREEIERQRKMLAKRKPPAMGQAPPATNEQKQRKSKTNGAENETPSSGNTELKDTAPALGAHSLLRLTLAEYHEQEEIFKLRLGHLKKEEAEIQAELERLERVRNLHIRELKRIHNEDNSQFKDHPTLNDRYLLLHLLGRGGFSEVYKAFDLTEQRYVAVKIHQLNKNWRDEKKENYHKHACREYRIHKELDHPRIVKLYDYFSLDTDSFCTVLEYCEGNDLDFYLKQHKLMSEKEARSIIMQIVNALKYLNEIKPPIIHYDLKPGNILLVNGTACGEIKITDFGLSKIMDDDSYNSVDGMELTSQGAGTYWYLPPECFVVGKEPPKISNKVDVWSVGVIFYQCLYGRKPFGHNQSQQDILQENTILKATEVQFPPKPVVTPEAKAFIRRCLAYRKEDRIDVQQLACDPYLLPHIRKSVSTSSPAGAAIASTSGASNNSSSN

[5] = molecular target: T3, Dual specificity mitogen-activated protein kinase kinase 3 (Homo sapiens) (UniProt P46734); experiment: Inhibition of human MAP2K3 in HL-60 cells lysate assessed as reduction of labeling of acyl-phosphate ATP probe at 100 nM
T3 sequence (whole entry): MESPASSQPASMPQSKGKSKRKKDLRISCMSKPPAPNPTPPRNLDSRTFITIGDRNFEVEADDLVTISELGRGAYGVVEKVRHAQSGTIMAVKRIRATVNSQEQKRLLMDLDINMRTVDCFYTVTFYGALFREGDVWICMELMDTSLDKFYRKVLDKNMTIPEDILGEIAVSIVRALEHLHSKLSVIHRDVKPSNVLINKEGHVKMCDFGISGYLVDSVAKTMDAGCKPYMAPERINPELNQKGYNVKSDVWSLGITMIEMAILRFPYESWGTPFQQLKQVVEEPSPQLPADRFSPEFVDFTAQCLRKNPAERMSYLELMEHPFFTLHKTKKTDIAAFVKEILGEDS

[6] = molecular target: T4, Dual specificity mitogen-activated protein kinase kinase 7 (Homo sapiens) (UniProt O14733); experiment: Inhibition of human MAP2K7 in HL-60 cells lysate assessed as reduction of labeling of acyl-phosphate ATP probe at 100 nM
T4 sequence (whole entry): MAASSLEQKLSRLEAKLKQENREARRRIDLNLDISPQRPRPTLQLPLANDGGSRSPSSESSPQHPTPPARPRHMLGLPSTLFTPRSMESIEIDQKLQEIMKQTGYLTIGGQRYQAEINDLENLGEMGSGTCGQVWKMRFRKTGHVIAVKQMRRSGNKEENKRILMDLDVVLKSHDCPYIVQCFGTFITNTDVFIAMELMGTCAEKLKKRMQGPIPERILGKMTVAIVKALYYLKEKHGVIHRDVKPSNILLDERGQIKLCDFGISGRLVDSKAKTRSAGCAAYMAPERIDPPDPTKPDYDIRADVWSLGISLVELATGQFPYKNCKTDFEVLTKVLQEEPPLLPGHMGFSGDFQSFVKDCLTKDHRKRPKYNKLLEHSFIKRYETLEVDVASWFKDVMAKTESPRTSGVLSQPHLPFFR

[7] = molecular target: Glycogen synthase kinase-3 alpha (Homo sapiens) (UniProt P49840); experiment: Inhibition of human GSK3alpha in HL-60 cells lysate assessed as reduction of labeling of acyl-phosphate ATP probe at 100 nM
Chain of Glycogen synthase kinase-3 alpha (Homo sapiens) (P49840 2-483 limits assumed): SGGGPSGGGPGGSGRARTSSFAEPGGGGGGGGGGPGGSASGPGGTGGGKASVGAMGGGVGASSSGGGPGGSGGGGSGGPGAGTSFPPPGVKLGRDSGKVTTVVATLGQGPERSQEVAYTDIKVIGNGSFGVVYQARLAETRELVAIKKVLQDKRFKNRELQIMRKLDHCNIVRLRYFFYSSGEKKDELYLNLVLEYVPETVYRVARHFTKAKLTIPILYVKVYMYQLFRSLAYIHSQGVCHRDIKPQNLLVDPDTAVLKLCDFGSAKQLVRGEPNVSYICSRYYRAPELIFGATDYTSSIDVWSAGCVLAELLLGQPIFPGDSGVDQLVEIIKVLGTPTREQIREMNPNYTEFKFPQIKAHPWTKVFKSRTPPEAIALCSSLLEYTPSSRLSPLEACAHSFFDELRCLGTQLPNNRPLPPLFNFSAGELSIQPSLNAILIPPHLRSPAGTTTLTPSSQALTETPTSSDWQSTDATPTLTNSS

[8] = molecular target: Cyclin-dependent kinase 1 (Homo sapiens) (UniProt P06493); experiment: Inhibition of human CDC2 in HL-60 cells lysate assessed as reduction of labeling of acyl-phosphate ATP probe at 100 nM
Chain of Cyclin-dependent kinase 1 (Homo sapiens) (P06493 whole entry, looked up): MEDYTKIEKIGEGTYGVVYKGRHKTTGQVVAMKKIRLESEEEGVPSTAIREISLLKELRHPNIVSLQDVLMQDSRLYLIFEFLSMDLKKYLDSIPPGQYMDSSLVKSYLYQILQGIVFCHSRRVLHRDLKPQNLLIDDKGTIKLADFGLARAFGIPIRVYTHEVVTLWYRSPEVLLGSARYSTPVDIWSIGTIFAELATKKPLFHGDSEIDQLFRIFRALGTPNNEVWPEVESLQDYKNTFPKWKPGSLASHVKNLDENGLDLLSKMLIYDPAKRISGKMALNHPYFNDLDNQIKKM

[9] = molecular target: Cyclin-dependent kinase 17 (Homo sapiens) (UniProt Q00537); experiment: Inhibition of human PCTAIRE2 in HL-60 cells lysate assessed as reduction of labeling of acyl-phosphate ATP probe at 100 nM
Chain of Cyclin-dependent kinase 17 (Homo sapiens) (Q00537 whole entry, looked up): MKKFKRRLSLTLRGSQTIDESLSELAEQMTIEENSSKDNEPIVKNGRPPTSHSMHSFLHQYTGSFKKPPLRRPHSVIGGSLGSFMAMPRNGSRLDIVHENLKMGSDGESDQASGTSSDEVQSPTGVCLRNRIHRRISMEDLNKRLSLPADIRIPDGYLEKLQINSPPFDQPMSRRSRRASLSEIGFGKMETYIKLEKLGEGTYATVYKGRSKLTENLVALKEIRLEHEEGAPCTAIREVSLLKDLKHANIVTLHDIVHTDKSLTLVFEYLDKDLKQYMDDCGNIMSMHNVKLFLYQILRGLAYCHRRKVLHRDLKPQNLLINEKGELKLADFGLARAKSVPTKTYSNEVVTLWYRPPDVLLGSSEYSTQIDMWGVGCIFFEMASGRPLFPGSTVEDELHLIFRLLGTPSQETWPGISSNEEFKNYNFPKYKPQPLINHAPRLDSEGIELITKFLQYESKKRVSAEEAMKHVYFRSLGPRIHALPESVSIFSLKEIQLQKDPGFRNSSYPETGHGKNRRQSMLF

SMILES | inhibition [1] [%] | inhibition [2] [%] | inhibition [3] [%] | inhibition [4] [%] | inhibition [5] [%] | inhibition [6] [%] | inhibition [7] [%] | inhibition [8] [%] | inhibition [9] [%]
C[C@H]1COc2c(NCCCc3ccccn3)c(F)c(N)c3c(=O)c(C#N)cn1c23 | < 35 | < 35 | < 35 | < 35 | < 35 | < 35 | > 99.5 | < 35 | < 35
C[C@H]1COc2c(NCCCc3ccccn3)c(F)c(N)c3c(=O)c(C(=O)O)cn1c23 | < 35 | < 35 | < 35 | < 35 | < 35 | < 35 | 94.3 | < 35 | < 35
C[C@H]1COc2c(NCCCn3cccn3)c(F)c(N)c3c(=O)c(C(=O)O)cn1c23 | < 35 | < 35 | < 35 | < 35 | < 35 | < 35 | 95.2 | < 35 | < 35
C[C@H]1COc2c(NCCCn3cccn3)c(F)c(N)c3c(=O)c(C#N)cn1c23 | < 35 | < 35 | < 35 | < 35 | < 35 | < 35 | > 99.5 | < 35 | < 35
